Experimental data as given in PubChem BioAssay AID449725 (University of Pittsburgh Molecular Library Screening Center, 2010).
The source made the active and inactive calls. The rule behind the calls is not given here.

Tested on: IMR-90 human lung fibroblast viability counter screen
Experiment: cytotoxicity in human IMR-90 lung fibroblasts – cell-based, IC50, cytotoxicity control, dose response (AID 449725);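 note: 48 hour compound exposure before the viability read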

SMILES | IC50
O=C(Cn1sc2ccccc2c1=O)N1CCOCC1 | > 25 µM (inactive)
CN(C)c1ccc(NC(=O)Cn2sc3ccccc3c2=O)cc1 | 18.4 µM
COC(=O)c1ccc(Cl)cc1NS(=O)(=O)c1ccc(OC)cc1 | 13.8 µM
CCCCCCC(=O)Nc1cc(Cl)ccc1C(=O)O | > 25 µM (inactive)
CCOC(=O)c1ccncc1NC(=O)c1ccc(OC)cc1 | > 25 µM (inactive)
O=C(Nc1cc(Cl)ccc1C(=O)O)c1ccc(C2CCCC2)cc1 | > 25 µM (inactive)
COc1ccc(-n2sc3ccccc3c2=O)cc1 | 5.54 µM
O=C(Nc1cc(Cl)ccc1C(=O)O)c1ccc2c(c1)OCO2 | > 25 µM (inactive)
O=C(Cn1sc2ccccc2c1=O)Nc1ccccc1Br | > 25 µM (inactive)
O=C(Nc1cc(Cl)ccc1C(=O)O)c1ccc(Cc2ccccc2)cc1 | > 25 µM (inactive)
O=c1c2ccccc2sn1-c1ccc(Cl)cc1 | > 25 µM (inactive)
COc1ccc(C(=O)Nc2cc(-c3ccccc3)ccc2C(=O)O)cc1 | > 25 µM (inactive)
Cn1c2ccccc2c(=O)n1-c1ccccc1 | > 25 µM (inactive)
COc1ccccc1C(=O)Nc1cc(Cl)ccc1C(=O)O | > 25 µM (inactive)
O=C(Cn1sc2ccccc2c1=O)Nc1ccc(C(F)(F)F)cc1 | 13.9 µM
O=c1c2ccc(F)cc2sn1Cc1ccccc1 | > 25 µM (inactive)
COc1ccc(C(=O)Nc2cc(C(=O)O)ccc2Cl)cc1 | > 25 µM (inactive)
Cn1sc2ccccc2c1=O | 2.32 µM
CC(=O)Nc1ccc2sn(-c3ccccc3)c(=O)c2c1 | 24.5 µM
O=C1c2cc(Br)ccc2S(=O)N1c1ccccc1 (centres undefined) | > 25 µM (inactive)
O=C(Nc1cc(Cl)ccc1C(=O)O)c1ccc(OC(F)(F)F)cc1 | > 25 µM (inactive)
COc1ccc(C(=O)Nc2ccccc2C(=O)O)cc1Cl | > 25 µM (inactive)
O=c1s[nH]c2ccccc12 | > 25 µM (inactive)
COc1ccc(C(=O)Nc2cc(Cl)ccc2S(N)(=O)=O)cc1 | > 25 µM (inactive)
COc1ccc(C(=O)Nc2ccccc2-c2nn[nH]n2)cc1 | > 25 µM (inactive)
O=C(Nc1cc(Cl)ccc1C(=O)O)c1ccc(-c2ccccc2)cc1 | > 25 µM (inactive)
O=c1cc(-c2ccccc2)sn1-c1ccccc1 | 13.4 µM

SMILES | IC50
N#Cc1ccc(Oc2ccc3c(c2)B(O)OC3)cc1 | > 25 µM (inactive)
O=C(Cn1sc2ccccc2c1=O)Nc1cccc(Br)c1 | > 25 µM (inactive)
O=C(Nc1ccccc1)n1sc2ccccc2c1=O | 1.66 µM
COc1ccc(NC(=O)c2ccccc2SCc2ccccc2)cc1 | > 25 µM (inactive)
COc1ccc(C(=O)Nc2cc(Cl)ccc2C(=O)O)cn1 | > 25 µM (inactive)
CCc1ccc(C(=O)Nc2cc(Cl)ccc2C(=O)O)cc1 | > 25 µM (inactive)
O=C(Cn1sc2ccccc2c1=O)Nc1ccccc1F | > 25 µM (inactive)
COc1ccc(-c2cc3ccccc3[nH]2)cc1 | > 25 µM (inactive)
COc1ccc(NC(=O)Nc2ccccc2C(=O)O)cc1 | > 25 µM (inactive)
CC(C)(C)c1ccc(C(=O)N2CCC(=O)c3ccc(Cl)cc32)cc1 | > 25 µM (inactive)
CCOC(=O)Cn1sc2ccccc2c1=O | 6.35 µM
O=C(O)c1ccccc1NC(=O)c1ccccc1C(=O)O | > 25 µM (inactive)
CCc1ccc(C(=O)Nc2cc(Cl)ccc2C(=O)OC)cc1 | > 25 µM (inactive)
O=C(Cn1sc2ccccc2c1=O)Nc1cccc(F)c1 | > 25 µM (inactive)
COc1ccc(C(=O)Nc2cc(Cl)ccc2O)cc1 | > 25 µM (inactive)
O=C(O)c1ccc(Cl)cc1NC(=O)C1CCOCC1 | > 25 µM (inactive)
CCCc1ccc(C(=O)Nc2cc(Cl)ccc2C(=O)O)cc1 | > 25 µM (inactive)
O=C(Cn1sc2cc(F)ccc2c1=O)Nc1ccccc1 | 14.8 µM
O=C(Cn1sc2ccccc2c1=O)Nc1ccccc1C(F)(F)F | > 25 µM (inactive)
O=c1c(O)c(-c2ccc(O)c(O)c2)oc2cc(O)cc(O)c12 | > 25 µM (inactive)
O=C1c2ccccc2S(=O)N1c1ccc(Cl)cc1 (centres undefined) | > 25 µM (inactive)
N#Cc1ccc2c(=O)n(-c3ccccc3)sc2c1 | > 25 µM (inactive)
O=C(Nc1cc(Cl)ccc1C(=O)O)c1ccc(-c2cccs2)cc1 | > 25 µM (inactive)
COc1ccccc1-n1sc2ccccc2c1=O | 6.29 µM
CC(C(=O)Nc1ccccc1)n1sc2ccccc2c1=O (centres undefined) | 16.3 µM
CCOc1ccc(C(=O)Nc2cc(Cl)ccc2C(=O)O)cc1 | > 25 µM (inactive)
COC(=O)c1cc(Cl)ccc1NC(=O)c1ccc(OC)cc1 | > 25 µM (inactive)

SMILES | IC50
COc1ccc(C(=O)Nc2cc(OC)ccc2C(=O)O)cc1 | > 25 µM (inactive)
O=C(Cn1sc2ccccc2c1=O)Nc1ccc(Cl)cc1 | > 25 µM (inactive)
COc1ccc(C(=O)Nc2ccccc2C(=O)O)cc1 | > 25 µM (inactive)
O=c1c2cc(N3CCOCC3)ccc2sn1-c1ccccc1 | 20.9 µM
O=C(Nc1cc(Cl)ccc1C(=O)O)c1ccc2c(c1)CCC2 | > 25 µM (inactive)
CN(C)c1cccc(NC(=O)Cn2sc3ccccc3c2=O)c1 | > 25 µM (inactive)
O=c1c2ccccc2sn1-c1ccccc1 | 1.45 µM
CC(C)(C)c1ccc(C(=O)Nc2cc(Cl)ccc2O)cc1 | > 25 µM (inactive)
O=C(Cn1sc2ccccc2c1=O)Nc1cccc(I)c1 | > 25 µM (inactive)
O=C(c1ccccc1)n1sc2ccccc2c1=O | 17 µM
CN(C)S(=O)(=O)c1cccc(-n2sc3ccccc3c2=O)c1 | 12.8 µM
COc1ccc(C(=O)NC(C(=O)O)c2ccccc2)cc1 (centres undefined) | > 25 µM (inactive)
O=c1c2cc(F)ccc2sn1-c1ccccc1Cl | 6.16 µM
O=C(O)c1ccc(Cl)cc1NC(=O)c1coc2ccccc12 | > 25 µM (inactive)
O=C(Cn1sc2ccccc2c1=O)Nc1ccc(I)cc1 | > 25 µM (inactive)
CC(C)(C)c1ccc(C(=O)Nc2cc(Br)ccc2C(=O)O)cc1 | > 25 µM (inactive)
COC(=O)c1ccc(Cl)cc1NC(=O)c1ccc(OC)cc1 | > 25 µM (inactive)
O=C(Cn1sc2ccccc2c1=O)Nc1ccccc1I | > 25 µM (inactive)
O=C1c2ccccc2S(=O)N1c1cccc(F)c1 (centres undefined) | > 25 µM (inactive)
OB1OCc2cc(C(F)(F)F)ccc21 | > 25 µM (inactive)
COc1ccc(NC(=O)c2ccccc2C(=O)O)cc1 | > 25 µM (inactive)
CC(C)c1ccc(C(=O)Nc2cc(Cl)ccc2C(=O)O)cc1 | > 25 µM (inactive)
Cc1cccc(C(=O)Nc2cc(Cl)ccc2C(=O)O)c1 | > 25 µM (inactive)
COc1ccc(N2C(=O)c3ccc(Cl)cc3C2=O)cc1 | > 25 µM (inactive)
O=c1c2cc(F)c(F)cc2sn1-c1ccccc1 | > 25 µM (inactive)
